From ChEMBL document CHEMBL1158837, “Cyclohexadepsipeptides from the insect pathogenic fungus Hirsutella nivea BCC 2594” (J Nat Prod, 2005)
Values after ≈ are worked out from the molar mass of the structure shown. Active and inactive are the calls of the source. The calls are words filed in the database; no cut-off is given here. Square brackets hold non-standard residues; d marks the D form. Peptide text beside a SMILES is read from it. Hica(2S) = CC(C)C[C@H](O)C(=O)O; NMeL = CN[C@@H](CC(C)C)C(=O)O; Hiv = CC(C)[C@H](O)C(=O)O

Legend:
Plasmodium falciparum [1] = assay: Antimalarial activity against multidrug-resistant Plasmodium falciparum K1 after 42 hrs by [3H]hypoxanthine uptake; format: functional, organism-based
Vero = assay: Cytotoxicity against african green monkey Vero cells at 50 ug/ml by SRB assay; format: cell-based; conditions: chlorocebus sabaeus
[2] = tested on: Mycobacterium tuberculosis; assay: Antitubercular activity against Mycobacterium tuberculosis H37Ra after 4 days by microplate alamar blue assay; format: functional; conditions: 96 h
Plasmodium falciparum [3] = assay: Antimalarial activity against multidrug-resistant Plasmodium falciparum K1 at 20 ug/ml after 42 hrs as reduced [3H]hypoxanthine uptake; format: functional, organism-based

SMILES	IC50 (Plasmodium falciparum [1])	Activity (Vero)	MIC [2]	Activity (Plasmodium falciparum [3])
COc1ccc(C[C@@H]2NC(=O)[C@H](CC(C)C)OC(=O)[C@H](C(C)C)OC(=O)[C@H](CO)NC(=O)[C@H]([C@@H](C)O)NC(=O)[C@H](CC(C)C)N(C)C2=O)cc1 [HIRSUTATIN B] (cyclo([Hica(2S)]Y(Me)[NMeL]TS[Hiv]))	5.8 µg/mL (≈ 8.21 µM)	Non-toxic	50 µg/mL (≈ 70.7 µM)	
CC(C)C[C@@H]1OC(=O)[C@H](C(C)C)OC(=O)[C@H](CO)NC(=O)[C@H]([C@@H](C)O)NC(=O)[C@H](CC(C)C)N(C)C(=O)[C@H](Cc2ccccc2)NC1=O [HIRSUTATIN A] (HELM PEPTIDE1{F.[meL].T.S.[CC(C)[C@H](O[*:1])C(=O)[*:2]].[CC(C)C[C@H](O[*:1])C(=O)[*:2]]}$PEPTIDE1,PEPTIDE1,1:R1-6:R2$$$V2.0)		Non-toxic	50 µg/mL (≈ 73.9 µM)	inactive
